Measured values taken from patent US20040047880A1, “Component for vaccine” (priority 2000, published 2004).
No end group written: not given here.

Test system: mAbs H44/24, H44/58, H44/70, H44/78, 4BE12C10
Experiment: ELISA test for the peptide-on-phage mAb interaction
Format: binding, mouse
Settings: peptide-on-phage coated at 5×10^11 particules/ml; positives tested a second time
Protocol: To assess the binding of the mAbs to the numerous peptides-on-phage, all clones have been produced independently using the following protocol.
A preculture of E. coli DH11S infected with the phage was grown overnight. A sample of this preculture was used to inoculate a new 50 ml culture with a starting OD600nm of 0.050. This culture was grown up to an OD600nm of 0.20 to 0.25 with vigorous shaking at 37° C. The culture was then slowed down for 15 minutes in order to allow the regeneration of pili. M13K07 helper phage was added at an MOI of 20, and superinfection was allowed for 15 more minutes at 37° C. with slow agitation. IPTG (1 mM final concentration) was then added and the culture was grown for 5 hours with vigorous agitation.
A colony of K91kan containing the clone of interest (on a LB Tet plate) was added to 50 ml of LB supplemented with 20 μg/ml tetracycline and grown overnight at 37° C. with strong agitation.
Culture was centrifuged for 15 minutes at 4000RPM; 0.15 volume of PEG-NaCl solution was added to the supernatant for precipitating the phage and kept overnight at 4° C. Phage were collected by centrifugation, 45 minutes at 4000RPM. After being resuspended in TBS, phage were heated 15 minutes at 65° C. to kill remaining bacteria and to denature soluble proteins present in the sample. The solution was then centrifuged and the pellet was discarded. Phage in the supernatant were then precipitated again as indicated above. Phage were finally resuspended in 200 μl of TBS. Concentration of phage particules was determined by measuring the ΔOD at 269 nm-320 nm.
(§1) Phages were coated at 5×10^11 particules/ml on MaxiSorp multiwell plates. Coating was performed overnight at 4° C. with 100 μl/well. Plates were saturated with 5% (v/v) skimmed milk in TBS for 2 hours at 37° C. and washed 5 times with TBS-Tween20 0.05% (v/v). The mAbs were then incubated in the coated wells for 1 hour at 37° C., washed 5 times, and GAM-HRP conjugate (1500-fold dilution, Dako, Denmark) was added for 1 hour at 37° C. to detect the binding of the mAb to the phages. After 5 washings, the peroxidase activity was monitored by addition of the K-Blue® substrate (Neogen, Lexington, USA) at room temperature for 20 minutes. Reaction was stopped by addition of 25 μl of 2N H2SO4. Reading was performed at 450-630 nm. Each phage was coated in triplicate for testing with each mAb.

Sequence	Phage ELISA: positive with at least one mAb
AERSLWYYP [Peptide 83]	positive
AITGVRARW (LOS peptide mimotope sequence) [Peptide 143]	positive
ARWYPISQT (LOS peptide mimotope sequence) [Peptide 124]	positive
CANSRPGGYLC (LOS peptide mimotope sequence) [Peptide 30]	positive
CAPPGIAVRTC (not fully specified (bridges); cysteine pairing not given here) [Peptide 115]	positive
CAPYSIFIGEC (not fully specified (bridges); cysteine pairing not given here) [Peptide 17]	positive
CFARPFQGTWC (LOS peptide mimotope sequence) [Peptide 22]	positive
CFGLIAFHPDC (LOS peptide mimotope sequence) [Peptide 27]	positive
CHSVQPATRAC (LOS peptide mimotope sequence) [Peptide 131]	positive
CIDAGSHGWLC (LOS peptide mimotope sequence) [Peptide 133]	positive
CISEYAKGTTC (LOS peptide mimotope sequence) [Peptide 13]	positive
CLAASADTAAC (LOS peptide mimotope sequence) [Peptide 139]	positive
CLWRPIDPFLC (LOS peptide mimotope sequence) [Peptide 82]	positive
CPKAPFSPFKC (LOS peptide mimotope sequence) [Peptide 132]	positive
CPPPWSTHDC (LOS peptide mimotope sequence) [Peptide 141]	positive
CPYTSWAREGC (LOS peptide mimotope sequence) [Peptide 140]	positive
CQPIGPPYDRC (LOS peptide mimotope sequence) [Peptide 28]	positive
CRFTYDPPFMC (LOS peptide mimotope sequence) [Peptide 51]	positive
CRGLQGHIAYC (LOS peptide mimotope sequence) [Peptide 87]	positive
CRPAFDPPYHC (LOS peptide mimotope sequence) [Peptide 54]	positive
CSEPWSTSNC (LOS peptide mimotope sequence) [Peptide 142]	positive
CSHAPPYDRVC [Peptide 14]	positive
CSSLYYHGTAC (LOS peptide mimotope sequence) [Peptide 39]	positive

Sequence	Phage ELISA: positive with at least one mAb
CSSYSYVHDSC [Peptide 50]	positive
CTANVYFGTYC [Peptide 29]	positive
CTHYSFYGDIC (LOS peptide mimotope sequence) [Peptide 66]	positive
CTPLPDGGILC (LOS peptide mimotope sequence) [Peptide 103]	positive
CYPQLSHANPC (LOS peptide mimotope sequence) [Peptide 105]	positive
DSAPAVKSS (LOS peptide mimotope sequence) [Peptide 85]	positive
EKKHFNYGT (LOS peptide mimotope sequence) [Peptide 144]	positive
EKKRFESNT (LOS peptide mimotope sequence) [Peptide 145]	positive
EQGYCTVNIEQCAKYR (LOS peptide mimotope sequence) [Peptide 146]	positive
GPWHGPSSS (LOS peptide mimotope sequence) [Peptide 93]	positive
HGRTLWYTP (LOS peptide mimotope sequence) [Peptide 55]	positive
LKWGDGSSA (LOS peptide mimotope sequence) [Peptide 104]	positive
NSPTSCKWLCNEKF (LOS peptide mimotope sequence) [Peptide 148]	positive
PGWYDAHPT (LOS peptide mimotope sequence) [Peptide 86]	positive
PLWYDPAPP (LOS peptide mimotope sequence) [Peptide 47]	positive
PRPHFGAPP [Peptide 61]	positive
RGSEGSFAR (LOS peptide mimotope sequence) [Peptide 45]	positive
SNWYENTPT (LOS peptide mimotope sequence) [Peptide 58]	positive
SPADCDYTTLCAKPT (LOS peptide mimotope sequence) [Peptide 147]	positive
SQWRSAAPT (LOS peptide mimotope sequence) [Peptide 53]	positive
WYIAPRKTL (LOS peptide mimotope sequence) [Peptide 63]	positive
WYSAPENAL (LOS peptide mimotope sequence) [Peptide 88]	positive
WYTTPTRPV (LOS peptide mimotope sequence) [Peptide 75]	positive

Test system: mAb H44/58
Experiment: Phage-ELISA with mAb H44/58
Format: binding, mouse
Settings: peptide-on-phage
Protocol: as §1

Sequence	Phage-ELISA result with mAb H44/58
CRAPPYDTIMC [Peptide 25]	positive
CSHAPPYDRVC [Peptide 14]	positive

Test system: mAb H44/58
Experiment: SPOT peptide immunoblot, mAb H44/58
Format: binding, mouse
Settings: Membrane 1 (linear peptide)
Excerpt: Another experiment for determining the best peptide candidates for immunisation trials is whether chemically synthesized peptides are recognized by at least one anti-MenB LOS mAb (and preferably not by irrelevant mAbs). This can be assessed on SPOT synthesized peptides (peptides synthesized directly on a cellulose membrane). This membrane can be tested with different mAbs by repetitive immunoblottings and chemiluminescent detection. Peptides may be synthesised with 3 residues originating from the pVIII protein sequence on each end of the peptide. Indeed, the primary structure of the peptides expressed in fusion with pVIII on the surface of the bacteriophage is as follows (x for any residue in the library):
For example linear peptides comprising peptide No. 61 from Table 2 (GEFPRPHFGAPPDPA) and peptide No. 83 (GEFAERSLWYYPDPA) were synthesised on one membrane, and cyclised peptides comprising peptide No. 50 from Table 2 (GEFCSSYSYVHDSCGDP), peptide 14 (GEFCSHAPPYDRVCGDP) and peptide 25 (GEFCRAPPYDTIMCGDP) were synthesised on another.
The protocol used to probe these membranes with mAbs was the one provided by Genosys, with some modifications, especially for the regeneration of membranes with cyclised peptides. […]

Sequence	SPOT recognition by mAb 58 (H44/58)
AERSLWYYP [Peptide 83]	recognized

Same assay, conditions: Membrane 2 (cyclic peptides), synthesised with pVIII flanking residues

Sequence	SPOT recognition by mAb 58 (H44/58)
CRAPPYDTIMC [Peptide 25]	positive
